Source: patent US20230348564A1, “ANTI-CANCER PROTEINS” (UNICHEM LABORATORIES LTD, priority 2020, published 2023)
Read-outs that look alike come from different tables or passages of the source.

Assays:
[1] = tested on: HT-29 (Colorectal cancer); assay: Xenograft study; type: in vivo, mice; settings: HT-29 xenograft, IP
Text: (§1) The Xenograft models used were HT-29, KB, PA-1, MCF-7, PANC-1, T24 and MDA-MB-231. The basic study design for the Xenograft study was as follows: • 1. Cell maintenance and cell suspension preparation • 2. Aseptic injection of tumor cell suspension in the donor animal • 3. Randomization of animals in respective groups • 4. IP dosing of test items in predetermined doses • 5. IP administration of standard • 6. After completion of dosing period. • 7. The Tumor volume recording weekly twice while body weight and clinical signs daily.

Notch-1 = assay: biomarker levels in IOMM-Lee by ELISA; type: cell-based, Human; settings: 0.1 μM
Text: (§2) Effect of SEQ ID No 2 on the expression of following 7 biomarkers were estimated in Human Meningioma cell line (IOMM-Lee) using multiplex analysis: TNF-alpha, VEGF, VEGFR2, HGF, HGFR/c-MET, PDGF-BB, and Contactin-1. Levels of another marker, Notch-1 were also estimated by ELISA in the same cell line. These 8 biomarkers play very crucial role in the pathogenesis and progression of Brain Tumor. […] Supernatants were collected and the levels of these 8 markers were investigated.

Neuroblastoma (SH-SY5Y) = assay: cytotoxicity in Brain Tumor Cell lines by MTT assay; type: cell-based, Human; settings: 0.05 μM-50 μM, 72 h
Protocol: (§3) The SEQ ID NO. […] Untreated cells were used as control. […] Cells were incubated for 3 h at 37° C.

Glioblastoma (LN-18) = assay: as above; type: cell-based, Human; settings: 0.05 μM-50 μM, 72 h
Protocol: as §3

Meningioma (IOMM-Lee) = assay: as above; settings: 0.05 μM-50 μM, 72 h
Astrocytoma (U87MG) = assay: as above; settings: 0.05 μM-50 μM, 72 h
Glioma (C6) = assay: as above; type: cell-based, Rat; settings: 0.05 μM-50 μM, 72 h
Protocol: as §3

PDGF-BB = assay: biomarker levels in IOMM-Lee by multiplex analysis; type: cell-based, Human
Text: as §2

HGF = assay: biomarker levels in IOMM-Lee by multiplex analysis; type: cell-based, Human
Text: as §2

TNF-α = assay: biomarker levels in IOMM-Lee by multiplex analysis; type: cell-based, Human
Text: as §2

Contactin-1 = assay: biomarker levels in IOMM-Lee by multiplex analysis; type: cell-based, Human
Text: as §2

VEGF = assay: biomarker levels in IOMM-Lee by multiplex analysis; type: cell-based, Human; settings: 0.1 μM
Text: as §2

VEGFR2 = assay: biomarker levels in IOMM-Lee by multiplex analysis; type: cell-based, Human
Text: as §2

HGFR/c-MET = assay: biomarker levels in IOMM-Lee by multiplex analysis; type: cell-based, Human
Text: as §2

[2] = tested on: PANC-1 (Pancreas/duct epithelioid carcinoma); assay: Xenograft study; type: in vivo, mice; settings: PANC-1 xenograft, IP
Text: as §1

[3] = tested on: EA.hy926 (Human endothelial cells); assay: Cell migration by scratch assay in endothelial cells; type: cell-based; settings: Homo sapiens, read-out: Inhibition of migration with respect to untreated; for inhibition at 0.0001 µM: 0.1 nM; for inhibition at 0.001 µM: 1 nM; for inhibition at 0.0025 µM: 2.5 nM; for inhibition at 0.005 µM: 5 nM; for inhibition at 0.01 µM: 10 nM
Protocol: EA.hy296 cells were counted using hemocytometer and plated in 6-well plates at the density of 0.5×10^6 cells/well. The cells were incubated overnight under growth conditions as described above so as to allow cell recovery and exponential growth. Following overnight incubation, a small linear scratch (representative wound) was created in the confluent monolayer (middle of the well) by gently scraping with sterile 200 μl micropipette tip. Photomicrographs of the scratch were taken at 0 h (Initial time point). Cells were rinsed with serum free DMEM and grouped for treatment in two different serum conditions:
• Baseline control: Cells+DMEM • Positive/Validation control: Baseline control+Positive Control. Test: Baseline control+Test Item
• Baseline control: Cells+DMEM+1% FBS • Positive/Validation control: Baseline control+Positive Control. • Test: Baseline control+Test item
Photomicrographs of the scratch were taken at 24 h-72 h time points. The photomicrographs obtained in the above step were analyzed for quantitative assessment of area of wound closure using ImageJ tool software. Percentage migration with respect to untreated cells at different time points was calculated.

[4] = tested on: EA.hy926 (Human endothelial cells); assay: endothelial cell proliferation by MTT assay; type: cell-based; settings: 72 h
Protocol: The cell line used for the study was EA.hy926 (Human endothelial cells) which was procured from National Centre for Cell Science, Pune (India). The cell line was maintained in DMEM+10% FBS (heat inactivated) at 37° C. with 5% CO2, and 95% humidity. […] Untreated cells with complete medium (10% FBS) served as complete medium control, cells with sera free medium served as SFM control and the cells treated with Paclitaxel served as positive control.
The percentage cytotoxicity corresponding to each treatment was calculated.

[5] = tested on: neovascularization of Matrigel plug containing FGF-2 (bFGF); assay: Matrigel plug assay (in-vivo anti-angiogenesis); design: species or system C57BL/6 mice; settings: G3, 55 mg/Kg, qdx15
Protocol: Healthy C57BL/6 mice were selected and grouped on the basis of body weight into […] (G1-G4, n=7). Each mouse of group G2-G4 was subcutaneously injected at right flank region with 500 μl of matrigel containing 500 ng of FGF-2 (bFGF). Whereas mice of G1 group were subcutaneously injected at right flank region with 500 μl of matrigel only. In this assay, angiogenesis-inducing compounds such as bFGF was introduced into cold liquid Matrigel which, after subcutaneous injection, solidified and permits penetration by host cells and the formation of new blood vessels (neovascularization).
Required amount of test items were taken and added to an appropriate volume of Tris Buffered Saline (TBS) to achieve the required concentrations. The dose volume given to animal was 10 mL/Kg.
Daily cage-side observations were carried out to detect any clinical signs or mortality and recorded throughout the experiment period.

## O=c1[nH]cc(F)c(=O)[nH]1 [5-Fluorourasil, reference compound]
[1]
  Maximum Tumor Growth Inhibition (%): 62.94%
  Tumor Volume (mm^3) (Mean ± SEM): 1362 ± 155 mm^3

## CO[C@H]1C[C@@H]2CC[C@@H](C)[C@@](O)(O2)C(=O)C(=O)N2CCCC[C@H]2C(=O)O[C@H]([C@H](C)C[C@@H]2CC[C@@H](OCCO)[C@H](OC)C2)CC(=O)[C@H](C)/C=C(\C)[C@@H](O)[C@@H](OC)C(=O)[C@H](C)C[C@H](C)/C=C/C=C/C=C/1C [Everolimus]
Notch-1
  Percentage inhibition on levels of Notch-1: 75.9%
Neuroblastoma (SH-SY5Y)
  % of cytotoxicity: 29.7%-70.1%
Glioblastoma (LN-18)
  % of cytotoxicity: 3.5%-90.7%
Meningioma (IOMM-Lee)
  % of cytotoxicity: 44.7%-97.4%
Astrocytoma (U87MG)
  % of cytotoxicity: 43.6%-88.0%
Glioma (C6)
  % of cytotoxicity: 50.3%-97.2%
PDGF-BB; 0.1 μM
  Percentage inhibition on levels of PDGF-BB: 1.5%
PDGF-BB; 5 μM
  Percentage inhibition on levels of PDGF-BB: 67.9%
HGF; 0.1 μM
  Percentage inhibition on levels of HGF: 59.2%
HGF; 5 μM
  Percentage inhibition on levels of HGF: 80.8%
TNF-α; 0.1 μM
  Percentage inhibition on levels of TNF-α: 42.3%
TNF-α; 5 μM
  Percentage inhibition on levels of TNF-α: 100%
Contactin-1; 0.1 μM
  Percentage inhibition on levels of Contactin-1: 14.9%
Contactin-1; 5 μM
  Percentage inhibition on levels of Contactin-1: 31.3%
VEGF
  Percentage inhibition on levels of VEGF: 45.8%
VEGFR2; 0.1 μM
  Percentage inhibition on levels of VEGFR2: 27.6%
VEGFR2; 5 μM
  Percentage inhibition on levels of VEGFR2: 100%
HGFR/c-MET; 0.1 μM
  Percentage inhibition on levels of HGFR/c-MET: 21.2%
HGFR/c-MET; 5 μM
  Percentage inhibition on levels of HGFR/c-MET: 41%

## Nc1ccn([C@@H]2O[C@H](CO)[C@@H](O)C2(F)F)c(=O)n1 [Gemcitabine, reference compound]
[2]
  Maximum Tumor Growth Inhibition (%): 61.49%
  Tumor Volume (mm^3) (Mean ± SEM): 503.93 ± 151.27 mm^3

## CC(=O)O[C@H]1C(=O)[C@@]2(C)[C@H]([C@H](OC(=O)c3ccccc3)[C@]3(O)C[C@H](OC(=O)[C@H](O)[C@@H](NC(=O)c4ccccc4)c4ccccc4)C(C)=C1C3(C)C)[C@]1(OC(C)=O)CO[C@@H]1C[C@@H]2O [Paclitaxel, reference compound]
[3]; EA.hy 926, 24 h, 24 h, 1% FBS
  inhibition at 0.0001 µM: -1.1%
  inhibition at 0.001 µM: 7.8%
  inhibition at 0.0025 µM: 25.9%
  inhibition at 0.005 µM: 25%
  inhibition at 0.01 µM: 44.4%
[3]; EA.hy 926, 24 h, 24 h, SFM
  inhibition at 0.0001 µM: 26.5%
  inhibition at 0.001 µM: 28.5%
  inhibition at 0.0025 µM: 51.4%
  inhibition at 0.005 µM: 43.7%
  inhibition at 0.01 µM: 58.9%
[3]; EA.hy 926, 48 h, 48 h, 1% FBS
  inhibition at 0.0001 µM: -0.2%
  inhibition at 0.001 µM: 2.1%
  inhibition at 0.0025 µM: 18.3%
  inhibition at 0.005 µM: 10.6%
  inhibition at 0.01 µM: 37.2%
[3]; EA.hy 926, 48 h, 48 h, SFM
  inhibition at 0.0001 µM: 21.1%
  inhibition at 0.001 µM: 36.8%
  inhibition at 0.0025 µM: 51.6%
  inhibition at 0.005 µM: 45.2%
  inhibition at 0.01 µM: 60.2%
[3]; EA.hy 926, 72 h, 72 h, SFM
  inhibition at 0.0001 µM: 7.8%
  inhibition at 0.001 µM: 32.7%
  inhibition at 0.0025 µM: 42.8%
  inhibition at 0.005 µM: 47.3%
  inhibition at 0.01 µM: 56.3%
[4]; 1 nM
  Mean (MTT absorbance): 0.93
[4]; 10 nM
  Mean (MTT absorbance): 0.89
[4]; 100 nM
  Mean (MTT absorbance): 0.57
[4]; 1000 nM
  Mean (MTT absorbance): 0.45
[4]; Homo sapiens, EA.hy 926, 1 nM, read-out: % inhibition of FBS stimulated cell growth
  inhibition at 0.001 µM: 42%
[4]; Homo sapiens, EA.hy 926, 10 nM, read-out: % inhibition of FBS stimulated cell growth
  inhibition at 0.01 µM: 44.7%
[4]; Homo sapiens, EA.hy 926, 100 nM, read-out: % inhibition of FBS stimulated cell growth
  inhibition at 0.1 µM: 64.5%
[4]; Homo sapiens, EA.hy 926, 1000 nM, read-out: % inhibition of FBS stimulated cell growth
  inhibition at 1 µM: 71.7%

## CCN(CC)CCNC(=O)c1c(C)[nH]c(/C=C2\C(=O)Nc3ccc(F)cc32)c1C [Sunitinib, reference compound]
[5]; p.o.
  Hemoglobin Content in the Matrigel Plug Section, Mean: 21.92
  reduction in hemoglobin content in homogenate of Matrigel plug compared to positive control: 59.2%
[5]
  Histological Observation, Fat cell Infiltration, Mean: 0.71
  Histological Observation, Fibroblast Infiltration, Mean: 2.43
  Histological Observation, MN cell Infiltration, Mean: 1.57
  Histological Observation, Neovascularization, Mean: 1.14
